Experiments:
Sprague Dawley Rats = assay: Locomotor activity test; type: in vivo, rat; conditions: 5 mg/kg i.p., measured 0.5 h from 1 h post injection, vs vehicle
male Sprague Dawley rats = assay: Rat forced swimming test; type: in vivo; conditions: 15 mg/kg i.p., 30 min pretreatment, vs vehicle
C57Bl/6 mice = assay: Mouse tail suspension test; type: in vivo; conditions: 15 mg/kg, 30 min before testing, vs vehicle

Row | locomotor activity (horizontal activity, HACTV) (Sprague Dawley Rats) | SMILES | duration of immobility in the forced swimming test (male Sprague Dawley rats) | immobility of mice in the tail suspension test (C57Bl/6 mice)
1 | significant rise | Fc1ccc(C(OCCN2CCN(CCCc3ccccc3)CC2)c2ccc(F)cc2)cc1 [GBR 12909, 1-[2-[bis(4-fluorophenyl)methoxy]ethyl]-4-[3-phenylpropyl]piperazine] | – | –
2 | – | CN(C)CCCN1c2ccccc2CCc2ccccc21 [imipramine, Imipramine] | produced a reduction in immobility | significantly different compared to vehicle

— article PMC3209502 (European journal of pharmacology, 2011)
